Measurements from the OligoGym collection.
Where “and” joins values, the source holds several entries; their conditions need not be identical. Identical values can stand only once. After the bases stand the sugars from the 5' end (letter, count) and the backbone: PS all phosphorothioate, else s phosphorothioate and o phosphodiester by linkage. Methylation of C is not given here. e = 2'-O-(2-methoxyethyl) (MOE); k = constrained ethyl (cEt); d = 2'-deoxy (DNA)

Biological target: IRF4
Conditions: ASO

| Sequence | target mRNA inhibition (SK-MEL-28, 4 µM) | target mRNA inhibition (MM.1R, 1 µM) | also measured |
| --- | --- | --- | --- |
| TCCCGAGGCCGGAGAC (sugars k3 d10 k3, PS) | -27% |  |  |
| GCCGCTGTCGATCTGG (sugars k4 d8 k4, PS) | 15% |  |  |
| CAATGATGGCAGTCTA (sugars k3 d10 k3, PS) | 40% |  |  |
| CCCCTCTCCAGGTGGC (sugars k4 d8 k4, PS) | -1% |  |  |
| TTACTCCGCTGAGTGG (sugars k3 d10 k3, PS) |  | -4% |  |
| ACTTTTAGAGAGGAGA (sugars k2 d9 e3 k2, PS) |  | 36% |  |
| ACCGAACACACCAGGT (sugars k3 d10 k3, PS) |  | -14% |  |
| GTATACATCACTGCAG (sugars k3 d10 k3, PS) | 44% |  |  |
| CAATACTGTAAGGGCT (sugars k3 d10 k3, PS) | 56% |  |  |
| CAAAGCGGGTTCACAA (sugars k3 d10 k3, PS) | 16% |  |  |
| AAACCAGTACAGTCCA (sugars k3 d10 k3, PS) |  | -23% |  |
| TGAGAGTAAACTTGGC (sugars k3 d10 k3, PS) | 65% | 20% | target mRNA inhibition (MM.1R, 0.0625 µM): -3%; target mRNA inhibition (MM.1R, 0.074 µM): 5%; target mRNA inhibition (MM.1R, 0.222 µM): 1%; target mRNA inhibition (MM.1R, 0.25 µM): 11%; target mRNA inhibition (MM.1R, 0.666 µM): 18%; target mRNA inhibition (MM.1R, 2 µM): 32%; target mRNA inhibition (MM.1R, 4 µM): 44% |
| TACCTACAAGCAGTCA (sugars k3 d10 k3, PS) | 56% |  |  |
| AATCATGATATTAGAG (sugars k3 d10 k3, PS) | 31% |  |  |
| TCAGTTTGTGAAGCAT (sugars kkdddddddddekeke, PS) |  | 45% |  |
| TTCATGTAAAGTCTGC (sugars k3 d10 k3, PS) |  | 57% and 55% |  |
| GGGTGGCATCATGTAG (sugars k3 d10 k3, PS) |  | 27% |  |
| AGGTATACTTAAGCAA (sugars k3 d10 k3, PS) | 68% |  |  |
| TGAGACTACACCTACA (sugars k3 d10 k3, PS) | 19% |  |  |
| CTGCTTGAGGTTTTCC (sugars k2 d9 e3 k2, PS) |  | 31% |  |
| GGTTGGCTGGTCTTTG (sugars k3 d10 k3, PS) |  | 49% and 35% | target mRNA inhibition (MM.1R, 0.0625 µM): -2% and 15%; target mRNA inhibition (MM.1R, 0.25 µM): 16% and 20%; target mRNA inhibition (MM.1R, 4 µM): 66% and 70% |
| TAGTATGAGAAACGGC (sugars kkkddddddddkekek, PS) |  | 30% |  |
| AGACAGATGACATGCT (sugars k3 d10 k3, PS) | 50% |  |  |
| TTGAAATGGAGCATCC (sugars k3 d10 k3, PS) | 22% |  |  |
| CTGGATTGATGTGATA (sugars k3 d10 k3, PS) | 43% |  |  |

| Sequence | target mRNA inhibition (SK-MEL-28, 4 µM) | target mRNA inhibition (MM.1R, 1 µM) | also measured |
| --- | --- | --- | --- |
| ATACATTGAGGCATAC (sugars k3 d10 k3, PS) |  | 2% |  |
| ACCAAGAAATGCACCT (sugars k3 d10 k3, PS) | 57% |  |  |
| GCACACGCAGCCTCTA (sugars k3 d10 k3, PS) | 5% |  |  |
| TCTCACGCAGTGCACC (sugars k3 d10 k3, PS) | 44% |  |  |
| TCAGATTTACACCGTT (sugars k3 d10 k3, PS) |  | 14% |  |
| ACACATTAAAGGGTAA (sugars k3 d10 k3, PS) | 11% |  |  |
| AGTGATGTCAGGTTTT (sugars k3 d9 k3 e1, PS) |  | 65% | target mRNA inhibition (MM.1R, 0.074 µM): 13%; target mRNA inhibition (MM.1R, 0.222 µM): 40%; target mRNA inhibition (MM.1R, 0.666 µM): 64%; target mRNA inhibition (MM.1R, 2 µM): 86% |
| AGCAGTGATGTCAGGT (sugars kdddddddddkekeke, PS) |  | 26% and 36% |  |
| GTGATGTCAGGTTTTC (sugars e1 k2 d9 k2 e2, PS) |  | 48% |  |
| ACTAGATTGTAGGACA (sugars k3 d10 k3, PS) | -9% |  |  |
| CTCTAGACAGAGGCCC (sugars k3 d10 k3, PS) | 20% |  |  |
| CTACACTTCCAAGCAA (sugars k3 d10 k3, PS) | -5% |  |  |
| CCACAGTGAAGTCGGG (sugars k3 d10 k3, PS) |  | 6% |  |
| CAGAACTAATGTCCCC (sugars k3 d10 k3, PS) | 69% |  |  |
| AGTTCATTCCCTAGGT (sugars k3 d10 k3, PS) | 44% |  |  |
| TTCAGACAGATGCAGC (sugars k3 d10 k3, PS) | 62% |  |  |
| ACAGTGACTTGCATCC (sugars kkdddddddddekeke, PS) |  | 9% |  |
| CTATCAGGATCTCAAG (sugars k3 d10 k3, PS) | 9% |  |  |
| GTGTCTAAAGTCCCAT (sugars k3 d10 k3, PS) |  | 18% and 28% |  |
| TAGTATGAGAAACGGC (sugars kddddddddddkekek, PS) |  | 24% |  |
| CAGTGATGTCAGGTTT (sugars kkdddddddddekeke, PS) |  | 47% |  |
| GCATAGGCATCCTTCC (sugars k3 d10 k3, PS) |  | 8% |  |
| TGGGATTATATACTGG (sugars kddddddddddkekek, PS) |  | 43% |  |
| GCATAGAGTCACCTGG (sugars k3 d10 k3, PS) | 39% |  |  |
| GAACAGTAACTTGACT (sugars k3 d10 k3, PS) | 4% |  |  |

| Sequence | target mRNA inhibition (SK-MEL-28, 4 µM) | target mRNA inhibition (MM.1R, 1 µM) | also measured |
| --- | --- | --- | --- |
| CCGCAAAAGAAACGAG (sugars k3 d10 k3, PS) |  | -7% |  |
| GGGAGAGCGGAGGCGG (sugars k3 d10 k3, PS) | 22% |  |  |
| ATGTATACATCACTGC (sugars k3 d10 k3, PS) | 67% |  |  |
| ATTATAGAGCATCACT (sugars k3 d10 k3, PS) |  | -6% |  |
| CACTAATACCTACCTG (sugars k3 d10 k3, PS) | 6% |  |  |
| GTGGACACTTTTAGAG (sugars k3 d10 k3, PS) | 52% |  |  |
| ATGTGATAGCTGAGCT (sugars k2 d9 e3 k2, PS) |  | 0% |  |
| TTAGAGGACAGTGACT (sugars k3 d10 k3, PS) | 18% |  |  |
| CGACAAGTGGCGCAGA (sugars k3 d10 k3, PS) |  | 2% |  |
| AGTGATGTCAGGTTTT (sugars kkdddddddddkekek, PS) |  | 39% |  |
| ATGCATAGTGATGAGA (sugars k3 d10 k3, PS) | 45% |  |  |
| GGCCTCTGAGCAGAAC (sugars k3 d10 k3, PS) | 27% |  |  |
| TGTTACCGATGCTTCA (sugars k2 d9 e3 k2, PS) |  | 31% and 39% |  |
| ACGCAGAGCCAGTAGG (sugars k3 d10 k3, PS) | 50% |  |  |
| ACGGAAGTTTACACTG (sugars e1 k2 d9 k2 e2, PS) |  | 17% |  |
| AGATAGTTAAGTACTT (sugars k3 d10 k3, PS) | 11% |  |  |
| TTAAAGGAGTGCAGGA (sugars k3 d10 k3, PS) | 16% |  |  |
| ACACAAGTCTTAGGTG (sugars k3 d10 k3, PS) |  | -153% |  |
| CAGTGACTTGCATCCA (sugars k2 d9 e3 k2, PS) |  | 28% |  |
| AGGAACTAGTCGACAG (sugars k3 d10 k3, PS) | 40% |  |  |
| TTCAACAGCACTGTCC (sugars k3 d10 k3, PS) | 65% |  |  |
| GTTACTCACGAGCACC (sugars k3 d10 k3, PS) |  | -17% |  |
| TTATCTTCCCTTAGGA (sugars k3 d10 k3, PS) | 28% |  |  |
| GGACCACATCTAATCC (sugars k3 d10 k3, PS) |  | -12% |  |
| CAAGAGGTGCGAGTAC (sugars k3 d10 k3, PS) | 22% |  |  |
